Laboratory results published in PubChem BioAssay (NCI).
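Grown in 96-well plates, cells were treated for 48 hours with each compound at five concentrations. Insufficient inhibition: endpoint recorded as highest concentration tested. TGI is the concentration that stops growth completely.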

Assays:
Assay in all cases: NCI-60 cell line screen, 48 h
NCI-H23 lung = test system: NCI-H23 lung
MOLT-4 leukemia = test system: MOLT-4 leukemia
SN12C renal = test system: SN12C renal
EKVX NSCLC = test system: EKVX NSCLC
HCC-2998 colon = test system: HCC-2998 colon
IGROV1 ovarian = test system: IGROV1 ovarian
HCT-15 colon = test system: HCT-15 colon
SK-MEL-2 melanoma = test system: SK-MEL-2 melanoma
NCI-H460 lung = test system: NCI-H460 lung
NCI/ADR-RES ovarian = test system: NCI/ADR-RES ovarian
OVCAR-3 ovarian = test system: OVCAR-3 ovarian
COLO 205 colon = test system: COLO 205 colon
SK-MEL-5 melanoma = test system: SK-MEL-5 melanoma
RXF 393 renal = test system: RXF 393 renal
CAKI-1 renal = test system: CAKI-1 renal
SF-268 CNS = test system: SF-268 CNS
OVCAR-5 ovarian = test system: OVCAR-5 ovarian
HT29 colon = test system: HT29 colon
A498 renal = test system: A498 renal
RPMI-8226 leukemia = test system: RPMI-8226 leukemia

O=C1CC(=O)c2c(O)cc(O)c(c2O)-c2c(ccc(O)c2O)C2=CC(=O)c3c(O)cc(O)c(c3O2)-c2c1ccc(O)c2O (tested in a mixture with another compound)
TGI (NCI-H23 lung): > 50 µM | TGI (MOLT-4 leukemia): > 50 µM | TGI (SN12C renal): > 50 µM | TGI (EKVX NSCLC): > 50 µM | TGI (HCC-2998 colon): > 50 µM | TGI (IGROV1 ovarian): > 50 µM | TGI (HCT-15 colon): > 50 µM | TGI (SK-MEL-2 melanoma): > 50 µM | TGI (NCI-H460 lung): > 50 µM | TGI (NCI/ADR-RES ovarian): > 50 µM | TGI (OVCAR-3 ovarian): > 50 µM | TGI (COLO 205 colon): > 50 µM | TGI (SK-MEL-5 melanoma): > 50 µM | TGI (RXF 393 renal): > 50 µM | TGI (CAKI-1 renal): > 50 µM | TGI (SF-268 CNS): > 50 µM | TGI (OVCAR-5 ovarian): > 50 µM | TGI (HT29 colon): > 50 µM | TGI (A498 renal): > 50 µM

CCCCCCCCCCCCCCCCSCC(COC)COP(=O)([O-])OCC[N+](C)(C)C (stereo unspecified)
TGI (NCI-H23 lung): 28.2 µM | TGI (MOLT-4 leukemia): 6.05 µM | TGI (SN12C renal): 11.3 µM | TGI (RPMI-8226 leukemia): 8.48 µM | TGI (EKVX NSCLC): 28.4 µM | TGI (HCC-2998 colon): 3.56 µM | TGI (IGROV1 ovarian): 4.77 µM | TGI (HCT-15 colon): 10.3 µM | TGI (SK-MEL-2 melanoma): 29.6 µM | TGI (NCI-H460 lung): 6.2 µM | TGI (NCI/ADR-RES ovarian): 30 µM | TGI (OVCAR-3 ovarian): 17 µM | TGI (COLO 205 colon): 3.96 µM | TGI (SK-MEL-5 melanoma): 25.2 µM | TGI (RXF 393 renal): 15.5 µM | TGI (CAKI-1 renal): 12.7 µM | TGI (SF-268 CNS): 20.5 µM | TGI (OVCAR-5 ovarian): 26 µM | TGI (HT29 colon): 12.8 µM | TGI (A498 renal): 19.1 µM

CC(=O)NCCC1CN(C(=O)/C=C\C#C[Si](C)(C)C)c2ccccc21 (stereo unspecified)
TGI (NCI-H23 lung): 28.4 µM | TGI (MOLT-4 leukemia): > 100 µM | TGI (SN12C renal): > 100 µM | TGI (RPMI-8226 leukemia): > 100 µM | TGI (EKVX NSCLC): 37.5 µM | TGI (HCC-2998 colon): 43.2 µM | TGI (IGROV1 ovarian): 30.8 µM | TGI (HCT-15 colon): 48.9 µM | TGI (SK-MEL-2 melanoma): 37.8 µM | TGI (NCI-H460 lung): > 100 µM | TGI (NCI/ADR-RES ovarian): 54.6 µM | TGI (OVCAR-3 ovarian): 84.1 µM | TGI (COLO 205 colon): > 100 µM | TGI (SK-MEL-5 melanoma): > 100 µM | TGI (RXF 393 renal): 55.3 µM | TGI (CAKI-1 renal): 33.2 µM | TGI (SF-268 CNS): > 100 µM | TGI (OVCAR-5 ovarian): 33.7 µM | TGI (HT29 colon): 58.9 µM | TGI (A498 renal): > 100 µM

CCOC(=O)c1sc2nc(SC)nc3c2c1NC(=O)CN3c1cccc(F)c1
TGI (NCI-H23 lung): > 100 µM | TGI (MOLT-4 leukemia): 67.7 µM | TGI (SN12C renal): 35.5 µM | TGI (RPMI-8226 leukemia): 46.8 µM | TGI (EKVX NSCLC): > 100 µM | TGI (IGROV1 ovarian): > 100 µM | TGI (SK-MEL-2 melanoma): 67.6 µM | TGI (NCI-H460 lung): > 100 µM | TGI (OVCAR-3 ovarian): 43.9 µM | TGI (COLO 205 colon): > 100 µM | TGI (SK-MEL-5 melanoma): > 100 µM | TGI (RXF 393 renal): 32 µM | TGI (CAKI-1 renal): > 100 µM | TGI (SF-268 CNS): 28.1 µM | TGI (OVCAR-5 ovarian): > 100 µM | TGI (HT29 colon): > 100 µM | TGI (A498 renal): 43.1 µM

O=C(NCCCCCCNC(=O)n1cc(F)c(=O)[nH]c1=O)NCCCOCCOCCCNC(=O)C(O)C(O)C(O)C(O)CO (stereo unspecified)
TGI (NCI-H23 lung): > 2.5 µM | TGI (MOLT-4 leukemia): > 2.5 µM | TGI (SN12C renal): > 2.5 µM | TGI (RPMI-8226 leukemia): > 2.5 µM | TGI (EKVX NSCLC): > 2.5 µM | TGI (HCC-2998 colon): > 2.5 µM | TGI (IGROV1 ovarian): > 2.5 µM | TGI (HCT-15 colon): > 2.5 µM | TGI (SK-MEL-2 melanoma): > 2.5 µM | TGI (NCI-H460 lung): > 2.5 µM | TGI (NCI/ADR-RES ovarian): > 2.5 µM | TGI (OVCAR-3 ovarian): > 2.5 µM | TGI (COLO 205 colon): > 2.5 µM | TGI (SK-MEL-5 melanoma): > 2.5 µM | TGI (RXF 393 renal): > 2.5 µM | TGI (SF-268 CNS): > 2.5 µM | TGI (OVCAR-5 ovarian): > 2.5 µM | TGI (HT29 colon): > 2.5 µM | TGI (A498 renal): > 2.5 µM

C/C(=N\NS(=O)(=O)c1ccccc1)c1ccccc1
TGI (NCI-H23 lung): > 100 µM | TGI (MOLT-4 leukemia): > 100 µM | TGI (SN12C renal): > 100 µM | TGI (RPMI-8226 leukemia): > 100 µM | TGI (EKVX NSCLC): > 100 µM | TGI (HCC-2998 colon): > 100 µM | TGI (IGROV1 ovarian): > 100 µM | TGI (HCT-15 colon): > 100 µM | TGI (SK-MEL-2 melanoma): > 100 µM | TGI (NCI-H460 lung): > 100 µM | TGI (NCI/ADR-RES ovarian): > 100 µM | TGI (OVCAR-3 ovarian): > 100 µM | TGI (COLO 205 colon): > 100 µM | TGI (SK-MEL-5 melanoma): > 100 µM | TGI (RXF 393 renal): > 100 µM | TGI (CAKI-1 renal): > 100 µM | TGI (SF-268 CNS): > 100 µM | TGI (OVCAR-5 ovarian): > 100 µM | TGI (HT29 colon): > 100 µM | TGI (A498 renal): > 100 µM

O=C(CC/C=C(/CS(=O)(=O)c1ccccc1)S(=O)(=O)c1ccccc1)c1ccccc1
TGI (NCI-H23 lung): > 100 µM | TGI (MOLT-4 leukemia): > 100 µM | TGI (SN12C renal): > 100 µM | TGI (RPMI-8226 leukemia): > 100 µM | TGI (EKVX NSCLC): > 100 µM | TGI (HCC-2998 colon): > 100 µM | TGI (IGROV1 ovarian): > 100 µM | TGI (HCT-15 colon): > 100 µM | TGI (SK-MEL-2 melanoma): > 100 µM | TGI (NCI-H460 lung): > 100 µM | TGI (OVCAR-3 ovarian): > 100 µM | TGI (SK-MEL-5 melanoma): > 100 µM | TGI (RXF 393 renal): > 100 µM | TGI (OVCAR-5 ovarian): > 100 µM | TGI (HT29 colon): > 100 µM | TGI (A498 renal): > 100 µM

CC(=O)OCC1OC(n2cc(F)c(=O)[nH]c2=O)C(N)C(OC(C)=O)C1OC(C)=O (stereo unspecified)
TGI (NCI-H23 lung): > 100 µM | TGI (MOLT-4 leukemia): > 100 µM | TGI (SN12C renal): > 100 µM | TGI (RPMI-8226 leukemia): > 100 µM | TGI (EKVX NSCLC): > 100 µM | TGI (HCC-2998 colon): > 100 µM | TGI (IGROV1 ovarian): > 100 µM | TGI (HCT-15 colon): > 100 µM | TGI (SK-MEL-2 melanoma): > 100 µM | TGI (NCI-H460 lung): > 100 µM | TGI (NCI/ADR-RES ovarian): > 100 µM | TGI (OVCAR-3 ovarian): > 100 µM | TGI (COLO 205 colon): > 100 µM | TGI (SK-MEL-5 melanoma): > 100 µM | TGI (RXF 393 renal): > 100 µM | TGI (CAKI-1 renal): > 100 µM | TGI (SF-268 CNS): > 100 µM | TGI (OVCAR-5 ovarian): > 100 µM | TGI (HT29 colon): > 100 µM | TGI (A498 renal): > 100 µM
